# Assay results reported in ChEMBL document CHEMBL1135235, “Structure-activity relationships of oxime neurokinin antagonists: oxime modifications” (Bioorg Med Chem Lett, 2002).
# Experiments:
# Type in all cases: cell-based
# [1] = molecular target: T1, Substance-P receptor (Homo sapiens, UniProt P25103); experiment: Binding affinity against recombinant human tachykinin receptor 1 in CHO cells using [3H]-Sar SP as a radioligand
# [2] = molecular target: T2, Substance-K receptor (Homo sapiens, UniProt P21452); experiment: (§1) Binding affinity against recombinant human tachykinin receptor 2 in CHO cells using [3H]NKA as a radioligand
# T2 sequence (P21452 whole entry): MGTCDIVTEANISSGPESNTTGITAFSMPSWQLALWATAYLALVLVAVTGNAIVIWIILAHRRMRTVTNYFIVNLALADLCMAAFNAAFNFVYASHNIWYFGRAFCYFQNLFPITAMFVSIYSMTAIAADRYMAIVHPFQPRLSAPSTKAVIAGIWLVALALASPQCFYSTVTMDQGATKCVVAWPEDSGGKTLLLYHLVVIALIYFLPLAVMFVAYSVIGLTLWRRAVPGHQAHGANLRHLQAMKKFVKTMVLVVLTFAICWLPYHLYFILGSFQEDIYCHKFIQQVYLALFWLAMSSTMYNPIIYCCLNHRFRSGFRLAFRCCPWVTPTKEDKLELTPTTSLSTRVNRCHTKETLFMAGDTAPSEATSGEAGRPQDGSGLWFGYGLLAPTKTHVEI
# [3] = molecular target: T3, Substance-K receptor (Homo sapiens) (UniProt P21452); experiment: as §1; design: concentration or dose not given beside the values; details: concentration not given here
# T3 sequence (whole entry): T2 sequence (P21452 whole entry)
# [4] = molecular target: T1, Substance-P receptor; experiment: The compound was evaluated for the binding affinity against recombinant human Tachykinin receptor 1 in CHO cells using [3H]-Sar SP as a radioligand; details: concentration not given here
# T1 sequence (P25103 whole entry): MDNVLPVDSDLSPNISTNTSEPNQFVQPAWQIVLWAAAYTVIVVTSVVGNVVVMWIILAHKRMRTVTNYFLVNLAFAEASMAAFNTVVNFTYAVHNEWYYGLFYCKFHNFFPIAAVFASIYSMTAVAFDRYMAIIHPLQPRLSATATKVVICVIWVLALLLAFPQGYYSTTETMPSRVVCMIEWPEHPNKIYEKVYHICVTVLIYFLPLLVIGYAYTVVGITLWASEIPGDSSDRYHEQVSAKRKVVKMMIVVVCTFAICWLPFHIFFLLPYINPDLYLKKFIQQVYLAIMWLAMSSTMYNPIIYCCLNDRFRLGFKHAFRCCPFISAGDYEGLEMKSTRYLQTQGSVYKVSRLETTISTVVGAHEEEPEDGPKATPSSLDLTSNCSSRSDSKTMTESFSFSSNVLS
SMILES,Ki [1],Ki [2],inhibition [3],inhibition [4]
COCCO/N=C(\CN(C)C(=O)c1cc(Cl)cc(Cl)c1)C(CCN1CCC(N2CCCCC2=O)CC1)c1ccc(Cl)c(Cl)c1 (centres undefined),2.4 nM,3.1 nM,–,–
CN(C/C(=N\OCC(C)(C)O)C(CCN1CCC(N2CCCCC2=O)CC1)c1ccc(Cl)c(Cl)c1)C(=O)c1cc(Cl)cc(Cl)c1 (centres undefined),1.9 nM,23 nM,–,–
CN(C/C(=N\OCc1c[nH]cn1)C(CCN1CCC(N2CCCCC2=O)CC1)c1ccc(Cl)c(Cl)c1)C(=O)c1cc(Cl)cc(Cl)c1 (centres undefined),2.2 nM,8.5 nM,–,–
CN(C/C(=N\OCCC[N+](C)(C)C)C(CCN1CCC(N2CCCCC2=O)CC1)c1ccc(Cl)c(Cl)c1)C(=O)c1cc(Cl)cc(Cl)c1 (centres undefined),1.8 nM,590 nM,–,–
CN(C/C(=N\OCC(=N)NO)[C@H](CCN1CCC(N2CCCCC2=O)CC1)c1ccc(Cl)c(Cl)c1)C(=O)c1cc(Cl)cc(Cl)c1,0.4 nM,0.5 nM,–,–
CN(C/C(=N\OCCn1ccnc1)C(CCN1CCC(N2CCCCC2=O)CC1)c1ccc(Cl)c(Cl)c1)C(=O)c1cc(Cl)cc(Cl)c1 (centres undefined),2.8 nM,5.4 nM,–,–
CN(C/C(=N\OCCCS(C)(=O)=O)C(CCN1CCC(N2CCCCC2=O)CC1)c1ccc(Cl)c(Cl)c1)C(=O)c1cc(Cl)cc(Cl)c1 (centres undefined),0.9 nM,3.2 nM,–,–
O=C(O)CO/N=C(\COCc1cc(C(F)(F)F)cc(C(F)(F)F)c1)C(CCN1CCC(O)(c2ccccc2)CC1)c1ccc(Cl)c(Cl)c1 (centres undefined),8 nM,–,20%,–
COC(=O)CO/N=C(\COCc1cc(C(F)(F)F)cc(C(F)(F)F)c1)C(CCN1CCC(O)(c2ccccc2)CC1)c1ccc(Cl)c(Cl)c1 (centres undefined),25 nM,198 nM,–,–
CN(C/C(=N\OCCCS(=O)(=O)O)C(CCN1CCC(N2CCCCC2=O)CC1)c1ccc(Cl)c(Cl)c1)C(=O)c1cc(Cl)cc(Cl)c1 (centres undefined),3.3 nM,2.7 nM,–,–
CNC(=O)CO/N=C(\COCc1cc(C(F)(F)F)cc(C(F)(F)F)c1)C(CCN1CCC(O)(c2ccccc2)CC1)c1ccc(Cl)c(Cl)c1 (centres undefined),24 nM,45 nM,–,–
COCO/N=C(\COCc1cc(C(F)(F)F)cc(C(F)(F)F)c1)C(CCN1CCC(O)(c2ccccc2)CC1)c1ccc(Cl)c(Cl)c1 (centres undefined),49 nM,42 nM,–,–
CN(C/C(=N\OCCCN)C(CCN1CCC(N2CCCCC2=O)CC1)c1ccc(Cl)c(Cl)c1)C(=O)c1cc(Cl)cc(Cl)c1 (centres undefined),0.7 nM,8.8 nM,–,–
CN(C/C(=N\OCCCO)C(CCN1CCC(N2CCCCC2=O)CC1)c1ccc(Cl)c(Cl)c1)C(=O)c1cc(Cl)cc(Cl)c1 (centres undefined),0.7 nM,1.5 nM,–,–
CC/C=C(\COCc1cc(C(F)(F)F)cc(C(F)(F)F)c1)C(CCN1CCC(O)(c2ccccc2)CC1)c1ccc(Cl)c(Cl)c1 (centres undefined),57 nM,–,28%,–
CC(C)CO/N=C(\COCc1cc(C(F)(F)F)cc(C(F)(F)F)c1)C(CCN1CCC(O)(c2ccccc2)CC1)c1ccc(Cl)c(Cl)c1 (centres undefined),–,–,11%,43%
CCO/N=C(\COCc1cc(C(F)(F)F)cc(C(F)(F)F)c1)C(CCN1CCC(O)(c2ccccc2)CC1)c1ccc(Cl)c(Cl)c1 (centres undefined),81 nM,107 nM,–,–
N#CO/N=C(\COCc1cc(C(F)(F)F)cc(C(F)(F)F)c1)C(CCN1CCC(O)(c2ccccc2)CC1)c1ccc(Cl)c(Cl)c1 (centres undefined),15 nM,19 nM,–,–
CO/C=C(\COCc1cc(C(F)(F)F)cc(C(F)(F)F)c1)C(CCN1CCC(O)(c2ccccc2)CC1)c1ccc(Cl)c(Cl)c1 (centres undefined),33 nM,–,35%,–
CN(C/C(=N\OCC(=O)O)C(CCN1CCC(N2CCCCC2=O)CC1)c1ccc(Cl)c(Cl)c1)C(=O)c1cc(Cl)cc(Cl)c1 (centres undefined),0.7 nM,394 nM,–,–
CN(C/C(=N\OCCN1CCNCC1)C(CCN1CCC(N2CCCCC2=O)CC1)c1ccc(Cl)c(Cl)c1)C(=O)c1cc(Cl)cc(Cl)c1 (centres undefined),0.5 nM,50 nM,–,–
O=C(COCc1cc(C(F)(F)F)cc(C(F)(F)F)c1)C(CCN1CCC(O)(c2ccccc2)CC1)c1ccc(Cl)c(Cl)c1 (centres undefined),15 nM,236 nM,–,–
OCCO/N=C(\COCc1cc(C(F)(F)F)cc(C(F)(F)F)c1)C(CCN1CCC(O)(c2ccccc2)CC1)c1ccc(Cl)c(Cl)c1 (centres undefined),20 nM,14 nM,–,–
C=CCO/N=C(\COCc1cc(C(F)(F)F)cc(C(F)(F)F)c1)C(CCN1CCC(O)(c2ccccc2)CC1)c1ccc(Cl)c(Cl)c1 (centres undefined),100 nM,215 nM,–,–

SMILES,Ki [1],Ki [2],inhibition [3],inhibition [4]
CO/N=C(\CN(C)C(=O)c1cc(Cl)cc(Cl)c1)C(CCN1CCC(N2CCCCC2=O)CC1)c1ccc(Cl)c(Cl)c1 (centres undefined),4.7 nM,1.6 nM,–,–
CN(C)/N=C(\COCc1cc(C(F)(F)F)cc(C(F)(F)F)c1)C(CCN1CCC(O)(c2ccccc2)CC1)c1ccc(Cl)c(Cl)c1 (centres undefined),38 nM,24 nM,–,–
CN(C/C(=N\OCCCNS(C)(=O)=O)C(CCN1CCC(N2CCCCC2=O)CC1)c1ccc(Cl)c(Cl)c1)C(=O)c1cc(Cl)cc(Cl)c1 (centres undefined),1.2 nM,4.5 nM,–,–
CN(C/C(=N\OCC(=O)NO)C(CCN1CCC(N2CCCCC2=O)CC1)c1ccc(Cl)c(Cl)c1)C(=O)c1cc(Cl)cc(Cl)c1 (centres undefined),1.2 nM,4.2 nM,–,–
NC(=O)CO/N=C(\COCc1cc(C(F)(F)F)cc(C(F)(F)F)c1)C(CCN1CCC(O)(c2ccccc2)CC1)c1ccc(Cl)c(Cl)c1 (centres undefined),17 nM,58 nM,–,–
CN(C/C(=N\OCC#N)C(CCN1CCC(N2CCCCC2=O)CC1)c1ccc(Cl)c(Cl)c1)C(=O)c1cc(Cl)cc(Cl)c1 (centres undefined),1.5 nM,1.4 nM,–,–
CSCCCO/N=C(\CN(C)C(=O)c1cc(Cl)cc(Cl)c1)C(CCN1CCC(N2CCCCC2=O)CC1)c1ccc(Cl)c(Cl)c1 (centres undefined),7.4 nM,11.5 nM,–,–
CN(C/C(=N\OCC(N)=O)C(CCN1CCC(N2CCCCC2=O)CC1)c1ccc(Cl)c(Cl)c1)C(=O)c1cc(Cl)cc(Cl)c1 (centres undefined),0.9 nM,2 nM,–,–
CNC(=O)NCCCO/N=C(\CN(C)C(=O)c1cc(Cl)cc(Cl)c1)C(CCN1CCC(N2CCCCC2=O)CC1)c1ccc(Cl)c(Cl)c1 (centres undefined),1 nM,1.7 nM,–,–
CN(C/C(=N\OCCC[S+](C)[O-])C(CCN1CCC(N2CCCCC2=O)CC1)c1ccc(Cl)c(Cl)c1)C(=O)c1cc(Cl)cc(Cl)c1 (centres undefined),0.8 nM,3.5 nM,–,–
CN(C/C(=N\OCCCn1cccn1)C(CCN1CCC(N2CCCCC2=O)CC1)c1ccc(Cl)c(Cl)c1)C(=O)c1cc(Cl)cc(Cl)c1 (centres undefined),1.7 nM,25 nM,–,–
COCCNC(=O)CO/N=C(\CN(C)C(=O)c1cc(Cl)cc(Cl)c1)C(CCN1CCC(N2CCCCC2=O)CC1)c1ccc(Cl)c(Cl)c1 (centres undefined),2.2 nM,48 nM,–,–
CN(C/C(=N\OCF)C(CCN1CCC(N2CCCCC2=O)CC1)c1ccc(Cl)c(Cl)c1)C(=O)c1cc(Cl)cc(Cl)c1 (centres undefined),0.8 nM,0.8 nM,–,–
CN(C)CCO/N=C(\COCc1cc(C(F)(F)F)cc(C(F)(F)F)c1)C(CCN1CCC(O)(c2ccccc2)CC1)c1ccc(Cl)c(Cl)c1 (centres undefined),103 nM,–,11%,–
COC(=O)CO/N=C(\CN(C)C(=O)c1cc(Cl)cc(Cl)c1)C(CCN1CCC(N2CCCCC2=O)CC1)c1ccc(Cl)c(Cl)c1 (centres undefined),4.7 nM,16.7 nM,–,–
COCCO/N=C(\COCc1cc(C(F)(F)F)cc(C(F)(F)F)c1)C(CCN1CCC(O)(c2ccccc2)CC1)c1ccc(Cl)c(Cl)c1 (centres undefined),7 nM,50 nM,–,–
CN(C/C(=N\OCCCn1ccnc1)C(CCN1CCC(N2CCCCC2=O)CC1)c1ccc(Cl)c(Cl)c1)C(=O)c1cc(Cl)cc(Cl)c1 (centres undefined),1.6 nM,6.8 nM,–,–
CN(C/C(=N\OC(F)F)C(CCN1CCC(N2CCCCC2=O)CC1)c1ccc(Cl)c(Cl)c1)C(=O)c1cc(Cl)cc(Cl)c1 (centres undefined),1.7 nM,5 nM,–,–
CN(C/C(=N\OCCCn1cncn1)C(CCN1CCC(N2CCCCC2=O)CC1)c1ccc(Cl)c(Cl)c1)C(=O)c1cc(Cl)cc(Cl)c1 (centres undefined),0.7 nM,4.8 nM,–,–
CN(C/C(=N\OCCO)C(CCN1CCC(N2CCCCC2=O)CC1)c1ccc(Cl)c(Cl)c1)C(=O)c1cc(Cl)cc(Cl)c1 (centres undefined),0.6 nM,0.8 nM,–,–
N=C(CO/N=C(\COCc1cc(C(F)(F)F)cc(C(F)(F)F)c1)C(CCN1CCC(O)(c2ccccc2)CC1)c1ccc(Cl)c(Cl)c1)NO (centres undefined),17 nM,19 nM,–,–
CONC(COCc1cc(C(F)(F)F)cc(C(F)(F)F)c1)C(CCN1CCC(O)(c2ccccc2)CC1)c1ccc(Cl)c(Cl)c1 (centres undefined),25 nM,350 nM,–,–
CN(C/C(=N\OCCCn1cnnn1)C(CCN1CCC(N2CCCCC2=O)CC1)c1ccc(Cl)c(Cl)c1)C(=O)c1cc(Cl)cc(Cl)c1 (centres undefined),0.8 nM,17 nM,–,–
